This passage reports IC50, MIC and Activity results from ChEMBL document CHEMBL3098121, “Dactyloditerpenol acetate, a new prenylbisabolane-type diterpene from Aplysia dactylomela with significant in vitro anti-neuroinflammatory activity” (Bioorg Med Chem Lett, 2014).

The nature of assay [1]: Antineuroinflammatory activity in rat brain neonatal microglia assessed as inhibition of LPS-induced TXB2 generation. The format is functional, tissue-based.
The nature of assay [2]: Cytotoxicity against rat brain neonatal microglia by LDH release assay. On the technique in general: LDH leaks from cells whose membrane has failed.
Assay [3] deals with Mycobacterium tuberculosis. Nature of the assay: Antimycobacterial activity against Mycobacterium tuberculosis H37Rv. The format is functional.
In a further assay the test system is A2058. The assay can be described thus: Cytotoxicity against human A2058 cells. Type of assay: functional.
A further assay relates to DU-145. The assay can be described thus: Cytotoxicity against human DU145 cells. The format is functional.
Assay [4] can be described thus: Antineuroinflammatory activity in rat brain neonatal microglia assessed as inhibition of LPS-induced superoxide anion generation. The format is functional, tissue-based.
The nature of assay [5]: Antineuroinflammatory activity in rat brain neonatal microglia. Type of assay: functional, tissue-based.

Each structure is given as a SMILES string. Converted amounts (≈) assume the structure as drawn.

As usually defined, the IC50 is the concentration at which inhibition is half-maximal. As usually defined, the MIC is the smallest concentration in the dilution series that meets the test's criterion for growth inhibition. Lower therefore signals a more susceptible organism.

As to `CC(=O)O[C@@H](CC[C@@H](C)[C@@H]1CCC(C)=C[C@H]1O)[C@](C)(O)CCC=C(C)C`, the IC50 in assay [1] is 400 nM; in assay [2], over 10000 nM; in assay [4], 1000 nM. In assay [3], this molecule showed an MIC of 59.4 µg/mL (≈ 162 µM). In addition, the Activity is on record as 67% with A2058 and 77% with DU-145.

Regarding `CC(=O)Oc1ccccc1C(=O)O` [ASPIRIN], the IC50 in assay [5] (read-out: IC50) was determined as 3.2 nM.

As to `CC(C(=O)O)c1ccc(-c2ccccc2)c(F)c1` (stereo not drawn) [FLURBIPROFEN], the IC50 in assay [5] (read-out: IC50(app)) was 100 nM.
